Test results: US7091311B2, “Peptides and compounds that bind to a receptor” (SmithKline Beecham Corporation, priority 1996, dated 2006)
Like-named read-outs stand apart in the source and are kept apart here. Where a SMILES comes first, the peptide text is derived from it. Where no end group is shown, it is not given here.

Molecular target: T1, TPO-R (Homo sapiens, UniProt P40238)
T1 construct: made in house
T1 sequence (P40238 26-491 limits assumed): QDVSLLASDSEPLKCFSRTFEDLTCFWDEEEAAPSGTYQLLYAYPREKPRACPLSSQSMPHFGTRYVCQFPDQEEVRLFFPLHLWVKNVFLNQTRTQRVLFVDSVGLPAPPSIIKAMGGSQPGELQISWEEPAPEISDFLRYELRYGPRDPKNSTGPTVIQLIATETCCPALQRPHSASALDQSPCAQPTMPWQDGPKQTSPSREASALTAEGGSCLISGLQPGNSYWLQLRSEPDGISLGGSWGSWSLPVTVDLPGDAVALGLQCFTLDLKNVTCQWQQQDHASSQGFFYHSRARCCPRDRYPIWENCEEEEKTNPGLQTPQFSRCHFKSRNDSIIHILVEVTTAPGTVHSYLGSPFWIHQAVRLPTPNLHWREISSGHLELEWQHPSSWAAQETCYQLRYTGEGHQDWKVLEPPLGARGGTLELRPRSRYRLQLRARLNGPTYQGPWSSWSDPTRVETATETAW
Experiment: competition binding assay: MBP-TPO156 binding to immobilized TPO-R (ELISA)
Method: A variety of methods can be used to evaluate IC50 values. For example, an equilibrium binding ELISA assay, using either MBP-TPO or lacI-peptide tracer, was used to determine whether the peptides inhibit the binding of TPO to the extracellular domain of the TPO receptor. Typically, the IC50 value were determined using the free peptide. The IC50value can be determined using the free peptide, which optionally can be C-terminally amidated, or can be prepared as an ester or other carboxy amide.
Binding affinities of chemically synthesized peptides for TPO-R were measured in a competition binding assay. The wells of a microtiter plate were coated with 1 mg streptavidin, blocked with PBS/1% BSA, followed by 50 ng of biotinylated anti-receptor immobilizing antibody (Ab179). The wells were then treated with a 1:10 dilution of soluble TPO-R harvest. Various concentrations of peptide or peptide mimetic were mixed with a constant amount of a truncated form of TPO consisting of residues 1–156 fused to the C-terminus of maltose binding protein (MBP-TPO156). The peptide MBP-TPO156 mixtures were added to the TPO-R coated wells, incubated for 2 hours at 4° C. and then washed with PBS. The amount of MBP-TPO156 that was bound at equilibrium was measured by adding a rabbit anti-sera directed against MBP, followed by alkaline phosphatase conjugated goat anti-rabbit IgG. The amount of alkaline phosphatase in each well was then determined using standard methods.
The assay is conducted over a range of peptide concentrations and the results are graphed such that the y axis represents the amount of bound MBP-TPO156 and the x axis represents the concentration of peptide or peptide mimetic.

[1] = Table 7, dimer compounds, read-out: IC50
[2] = Table 3, free peptide, read-out: Affinity (IC50)

Compound: CC[C@@H]1NC(=O)[C@H]([C@@H](C)CC)NC(=O)[C@H](Cc2c[nH]c3ccccc23)NC(=O)[C@H](CCC(=O)O)NC(=O)[C@H](CCCNC(=N)N)NC(=O)[C@H](CC(C)C)NC(=O)[C@H]([C@@H](C)O)NC(=O)[C@@H]2CCCN2C(=O)CNC(=O)[C@H](CC(=O)O)NC(=O)[C@H](C)NC(=O)CSC[C@@H](C(N)=O)NC(=O)[C@H](C(c2ccccc2)c2ccccc2)NC1=O [S,F - Abu, DiPh-Ala] (HELM PEPTIDE1{[O=C(C[*:3])[*:2]].A.D.G.P.T.L.R.E.W.I.[Abu].[O=C([C@@H](N[*:1])C(c1ccccc1)c1ccccc1)[*:2]].C.[am]}$PEPTIDE1,PEPTIDE1,1:R3-14:R3$$$V2.0; C-terminus assumed)
- IC50 (Table 6, read-out: IC50): ≤ 500 nM

Compound: CC[C@H](C)[C@H](NC(=O)[C@H](Cc1c[nH]c2ccccc12)NC(=O)[C@H](CCC(=O)O)NC(=O)[C@H](CCCNC(=N)N)NC(=O)[C@H](CC(C)C)NC(=O)[C@@H](NC(C)=O)[C@@H](C)O)C(=O)N[C@@H](CO)C(=O)N[C@@H](Cc1ccccc1)C(=O)N[C@@H](CSSC[C@H](NC(=O)[C@H](Cc1ccccc1)NC(=O)[C@H](CO)NC(=O)[C@@H](NC(=O)[C@H](Cc1c[nH]c2ccccc12)NC(=O)[C@H](CCC(=O)O)NC(=O)[C@H](CCCNC(=N)N)NC(=O)[C@H](CC(C)C)NC(=O)[C@@H](NC(C)=O)[C@@H](C)O)[C@@H](C)CC)C(N)=O)C(N)=O (HELM PEPTIDE1{[ac].T.L.R.E.W.I.S.F.C.[am]}|PEPTIDE2{[ac].T.L.R.E.W.I.S.F.C.[am]}$PEPTIDE1,PEPTIDE2,10:R3-10:R3$$$V2.0; C-terminus assumed)
- IC50 [1]: 200000 nM

Compound: GNADGPTLRQWLEGRRPKN [G N A D G P T L R Q W L E G R R P K N]
- IC50 [2]: ≤ 500 nM

Compound: CC[C@H](C)[C@H](NC(=O)[C@H](Cc1c[nH]c2ccccc12)NC(=O)[C@H](CCC(=O)O)NC(=O)[C@H](CCCNC(=N)N)NC(=O)[C@H](CC(C)C)NC(=O)[C@@H](NC(=O)[C@@H]1CCCN1C(=O)CNC(C)=O)[C@@H](C)O)C(=O)N[C@@H](CO)C(=O)N[C@@H](Cc1ccccc1)C(=O)N[C@@H](CSSC[C@H](NC(=O)[C@H](Cc1ccccc1)NC(=O)[C@H](CO)NC(=O)[C@@H](NC(=O)[C@H](Cc1c[nH]c2ccccc12)NC(=O)[C@H](CCC(=O)O)NC(=O)[C@H](CCCNC(=N)N)NC(=O)[C@H](CC(C)C)NC(=O)[C@@H](NC(=O)[C@@H]1CCCN1C(=O)CNC(C)=O)[C@@H](C)O)[C@@H](C)CC)C(N)=O)C(N)=O (HELM PEPTIDE1{[ac].G.P.T.L.R.E.W.I.S.F.C.[am]}|PEPTIDE2{[ac].G.P.T.L.R.E.W.I.S.F.C.[am]}$PEPTIDE1,PEPTIDE2,12:R3-12:R3$$$V2.0; C-terminus assumed)
- IC50 [1]: ≤ 500 nM

Compound: CSCC[C@H](N)C(=O)N[C@H](C(=O)NCC(=O)N1CCC[C@H]1C(=O)N[C@H](C(=O)N[C@@H](CC(C)C)C(=O)N[C@@H](CCCNC(=N)N)C(=O)N[C@@H](CO)C(=O)NCC(=O)N[C@@H](CSSC[C@H](NC(=O)CNC(=O)[C@H](CO)NC(=O)[C@H](CCCNC(=N)N)NC(=O)[C@H](CC(C)C)NC(=O)[C@@H](NC(=O)[C@@H]1CCCN1C(=O)CNC(=O)[C@@H](NC(=O)[C@@H](N)CCSC)C(C)C)[C@@H](C)O)C(N)=O)C(N)=O)[C@@H](C)O)C(C)C (HELM PEPTIDE1{M.V.G.P.T.L.R.S.G.C.[am]}|PEPTIDE2{M.V.G.P.T.L.R.S.G.C.[am]}$PEPTIDE1,PEPTIDE2,10:R3-10:R3$$$V2.0)
- IC50 [1]: 200000 nM

Compound: CC[C@H](C)[C@@H]1NC(=O)[C@H](Cc2c[nH]c3ccccc23)NC(=O)[C@H](CCC(=O)O)NC(=O)[C@H](CCCNC(=N)N)NC(=O)[C@H](CC(C)C)NC(=O)[C@H]([C@@H](C)O)NC(=O)[C@@H]2CCCN2C(=O)CNC(=O)[C@H](CC(=O)O)NC(=O)[C@H](C)NC(=O)CSC[C@@H](C(=O)NCC(N)=O)NC(=O)[C@H](Cc2ccccc2)NC(=O)[C@H](CO)NC1=O [C-term, Gly addition] (HELM PEPTIDE1{[O=C(C[*:3])[*:2]].A.D.G.P.T.L.R.E.W.I.S.F.C.G.[am]}$PEPTIDE1,PEPTIDE1,1:R3-14:R3$$$V2.0; C-terminus assumed)
- IC50 (Table 6, read-out: IC50): ≤ 500 nM

Compound: TIKGPTLRQWLKSREHTS [T I K G P T L R Q W L K S R E H T S]
- IC50 [2]: ≤ 500 nM

Compound: CC[C@H](C)[C@H](NC(=O)[C@H](Cc1c[nH]c2ccccc12)NC(=O)[C@H](CCC(=O)O)NC(=O)[C@H](CCCNC(=N)N)NC(=O)[C@H](CC(C)C)NC(=O)[C@@H](NC(=O)[C@@H]1CCCN1C(=O)CNC(=O)[C@H](CC(=O)O)NC(C)=O)[C@@H](C)O)C(=O)N[C@@H](CO)C(=O)N[C@@H](Cc1ccccc1)C(=O)N[C@@H](CSSC[C@H](NC(=O)[C@H](Cc1ccccc1)NC(=O)[C@H](CO)NC(=O)[C@@H](NC(=O)[C@H](Cc1c[nH]c2ccccc12)NC(=O)[C@H](CCC(=O)O)NC(=O)[C@H](CCCNC(=N)N)NC(=O)[C@H](CC(C)C)NC(=O)[C@@H](NC(=O)[C@@H]1CCCN1C(=O)CNC(=O)[C@H](CC(=O)O)NC(C)=O)[C@@H](C)O)[C@@H](C)CC)C(N)=O)C(N)=O (HELM PEPTIDE1{[ac].D.G.P.T.L.R.E.W.I.S.F.C.[am]}|PEPTIDE2{[ac].D.G.P.T.L.R.E.W.I.S.F.C.[am]}$PEPTIDE1,PEPTIDE2,13:R3-13:R3$$$V2.0; C-terminus assumed)
- IC50 [1]: ≤ 500 nM

Compound: LAIEGPTLRQWLHGNGRDT [L A I E G P T L R Q W L H G N G R D T]
- IC50 [2]: ≤ 500 nM

Compound: CC[C@H](C)[C@@H]1NC(=O)[C@H](Cc2c[nH]c3ccccc23)NC(=O)[C@H](CCC(=O)O)NC(=O)[C@H](CCCNC(=N)N)NC(=O)[C@H](CC(C)C)NC(=O)[C@H]([C@@H](C)O)NC(=O)[C@@H]2CCCN2C(=O)CNC(=O)[C@H](CC(=O)O)NC(=O)[C@H](C)NC(=O)CSC[C@@H](C(N)=O)NC(=O)[C@H](C(c2ccccc2)c2ccccc2)NC(=O)[C@H](CO)NC1=O [F - DiPh-Ala] (HELM PEPTIDE1{[O=C(C[*:3])[*:2]].A.D.G.P.T.L.R.E.W.I.S.[O=C([C@@H](N[*:1])C(c1ccccc1)c1ccccc1)[*:2]].C.[am]}$PEPTIDE1,PEPTIDE1,1:R3-14:R3$$$V2.0; C-terminus assumed)
- IC50 (Table 6, read-out: IC50): ≤ 500 nM

Compound: CC(C)C[C@H](NC(=O)[C@H](Cc1c[nH]c2ccccc12)NC(=O)[C@H](CCC(N)=O)NC(=O)[C@H](CCCNC(=N)N)NC(=O)[C@H](CC(C)C)NC(=O)[C@@H](NC(=O)[C@@H]1CCCN1C(=O)CNC(=O)[C@H](CSSC[C@H](NC(=O)[C@H](CCC(N)=O)NC(=O)[C@@H](NC(=O)[C@@H](N)CO)C(C)C)C(=O)NCC(=O)N1CCC[C@H]1C(=O)N[C@H](C(=O)N[C@@H](CC(C)C)C(=O)N[C@@H](CCCNC(=N)N)C(=O)N[C@@H](CCC(N)=O)C(=O)N[C@@H](Cc1c[nH]c2ccccc12)C(=O)N[C@@H](CC(C)C)C(=O)N[C@@H](C)C(=O)N[C@@H](C)C(=O)N[C@@H](CCCNC(=N)N)C(=O)N[C@@H](CC(N)=O)C(=O)N[C@@H](Cc1c[nH]cn1)C(=O)N[C@@H](CC(C)C)C(=O)N[C@@H](CO)C(N)=O)[C@@H](C)O)NC(=O)[C@H](CCC(N)=O)NC(=O)[C@@H](NC(=O)[C@@H](N)CO)C(C)C)[C@@H](C)O)C(=O)N[C@@H](C)C(=O)N[C@@H](C)C(=O)N[C@@H](CCCNC(=N)N)C(=O)N[C@@H](CC(N)=O)C(=O)N[C@@H](Cc1c[nH]cn1)C(=O)N[C@@H](CC(C)C)C(=O)N[C@@H](CO)C(N)=O (HELM PEPTIDE1{S.V.Q.C.G.P.T.L.R.Q.W.L.A.A.R.N.H.L.S.[am]}|PEPTIDE2{S.V.Q.C.G.P.T.L.R.Q.W.L.A.A.R.N.H.L.S.[am]}$PEPTIDE1,PEPTIDE2,4:R3-4:R3$$$V2.0)
- IC50 [1]: ≤ 500 nM

Compound: GPTLRQWL [G P T L R Q W L]
- IC50 [2]: > 200000 nM

Compound: CC[C@H](C)[C@H](NC(=O)[C@H](Cc1c[nH]c2ccccc12)NC(=O)[C@H](CCC(=O)O)NC(=O)[C@H](CCCNC(=N)N)NC(=O)[C@H](CC(C)C)NC(=O)[C@@H](NC(=O)[C@@H]1CCCN1C(=O)CNC(=O)[C@H](CC(=O)O)NC(=O)[C@H](C)NC(C)=O)[C@@H](C)O)C(=O)N[C@@H](CO)C(=O)N[C@@H](Cc1ccccc1)C(=O)N[C@@H](CSSC[C@H](NC(=O)[C@H](Cc1ccccc1)NC(=O)[C@H](CO)NC(=O)[C@@H](NC(=O)[C@H](Cc1c[nH]c2ccccc12)NC(=O)[C@H](CCC(=O)O)NC(=O)[C@H](CCCNC(=N)N)NC(=O)[C@H](CC(C)C)NC(=O)[C@@H](NC(=O)[C@@H]1CCCN1C(=O)CNC(=O)[C@H](CC(=O)O)NC(=O)[C@H](C)NC(C)=O)[C@@H](C)O)[C@@H](C)CC)C(N)=O)C(N)=O (HELM PEPTIDE1{[ac].A.D.G.P.T.L.R.E.W.I.S.F.C.[am]}|PEPTIDE2{[ac].A.D.G.P.T.L.R.E.W.I.S.F.C.[am]}$PEPTIDE1,PEPTIDE2,14:R3-14:R3$$$V2.0; C-terminus assumed)
- IC50 [1]: ≤ 500 nM
